Patent publication US6855728B2, “Small-molecule modulators of hepatocyte growth factor / scatter factor activities” (North Shore-Long Island Jewish Health System, priority 2001, dated 2005)

Assays:
[1] = tested on: Endothelial cells (HUVECs); experiment: Endothelial cell (HUVEC) proliferation assay, 3H thymidine incorporation, compound without added growth factor; type: cell-based, human
Outline: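 HUVECs grown 24 h in EGM-2, starved 1-2 h in RPMI-1% BSA, then exposed 24 h at 37 degrees C to compounds at 1 to 12 microgram/ml without added growth factors. Proliferation read as 3H thymidine incorporation over 4 to 5 h; human iliac artery endothelial cells also used similarly.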

[2] = tested on: HGF/SF induced proliferation of HUVEC; experiment: Endothelial cell (HUVEC) proliferation assay in the presence of exogenously-added HGF/SF; type: cell-based, human
Source text: To evaluate inhibitors of activity, compounds may be evaluated directly for anti-proliferative activities, such as the inhibition of cellular proliferation, inhibition of tumor growth, inhibition of scatter, and inhibition of gene expression, and may also be evaluated on their ability to inhibit activity when exposed to cells together with. In such instances, the scatter and/or proliferative activities induced by added will be inhibited by the attendant presence of an inhibitory compound of the invention.
(§1) Cell proliferation assays Endothelial cells (HUVECs) were seeded in 48 well plates at a density of 10,000 to 20,000 cells per well in the normal growth medium (EGM-2-Clonetics) containing 2% fetal bovine serum, FGF, VEGF, IGF, ascorbic acid, EGF, GA, heparin and hydrocortisone. The cells were grown normally in the growth medium for 24 hr at 37 degrees C. and 5% CO2. The cells were then rinsed with RPMI-1% BSA and starved for 1-2 hrs. The stock solutions of all the compounds were made at a concentration of 10 mg/ml in DMSO and diluted in RPMI-1% BSA at a final concentrations of 1 to 12 microgram/ml. The cells were then washed and treated with the compounds and incubated for another 24 hr at 37 degrees C. Then ^3H thymidine (0.5 microgram/ml in RPMI-BSA) was added to the cells and incubated at 37 degrees C. for 4 to 5 hours. The unincorporated thymidine was removed by washing the cells four times with 1× PBS. Then the cells were lysed with 0.5M NaOH for 30 min and the radioactivity counted in the beta counter.

[3] = tested on: growth of blood vessels from subcutaneous tissue into Matrigel; experiment: In vivo blood vessel ingrowth assay (Matrigel); details: mice, Matrigel mixed with compound injected subcutaneously, 10 days
Procedure: Angiogenesis was assayed as growth of blood vessels from subcutaneous tissue into a solid gel of basement membrane containing the test compound. Matrigel in liquid form (0.5 ml) was mixed with a compound of the invention, or basic fibroblast growth factor as a control, and injected into the abdominal subcutaneous tissue of mice as previously described (Kibbey, M. C., Grant, D. S. Auerbach, R. and Kleinman, H. K. [1992] Role of the SIKVAV site of laminin in promotion of angiogenesis and tumor growth: an in vivo Matrigel model. J. Natl. Can. Inst. 84, 1633-38). After 10 days, mice were sacrificed and the Matrigel plugs were removed, fixed, sectioned, stained and examined for ingrowth of blood vessels.

DU145 cells = experiment: Clonogenic assay; type: cell-based; details: clonogenic assay over 7 days
Procedure: The effect of (4-(2-chloro-6-fluorobenzyl)-3,5-dimethyl-1H-pyrazole-1-yl)(3-(2,6-dichlorophenyl)-5-methylisoxazol-4-yl)methanone (FIG. 7) and 1-(4-chloro-3-methylphenyl)-3-(2,6-dichlorophenyl)-prop-2-en-1-one were evaluated in a clonogenic assay over 7 days.

[4] = tested on: VEGF-mediated increase in endothelial cell proliferation; experiment: Endothelial cell proliferation assay in the presence of VEGF; type: cell-based; details: 1.5 micromolar
Procedure: as §1
(§2) In endothelial cell proliferation assays as described above, the effect of the compound 1-(4-chloro-3-methylphenyl)-3-(2,6-dichlorophenyl)-prop-2-en-1-one was evaluated in the presence of HGF/SF, VEGF or FGF for its effects on antagonizing the growth factor-induced stimulation of endothelial cell proliferation.

[5] = tested on: FGF-mediated increase in endothelial cell proliferation; experiment: Endothelial cell proliferation assay in the presence of FGF; type: cell-based; details: 1.5 micromolar
Procedure: as §1, §2

c-Met receptor = c-Met receptor (Homo sapiens, UniProt P08581); experiment: HUVEC proliferation assay with free c-Met receptor (specificity); type: cell-based
Source text: The following assays were used to evaluate the activity of the various compounds discussed herein. Certain of the compounds and groups thereof express-like activity, i.e., they induce scatter, cell proliferation, inhibit apoptosis, among other activities, and if acting through the c-Met receptor, agonize or stimulate c-Met receptor activity. The specificity for such compounds working through the c-Met receptor may be identified by performing the stimulation assay in the presence of free c-Met receptor. Reduction of a proliferative response in the presence of c-Met indicates such specificity.
Cell proliferation assays Endothelial cells (HUVECs) were seeded in 48 well plates at a density of 10,000 to 20,000 cells per well in the normal growth medium (EGM-2-Clonetics) containing 2% fetal bovine serum, FGF, VEGF, IGF, ascorbic acid, EGF, GA, heparin and hydrocortisone. The cells were grown normally in the growth medium for 24 hr at 37 degrees C. and 5% CO2. The cells were then rinsed with RPMI-1% BSA and starved for 1-2 hrs. […] Then the cells were lysed with 0.5M NaOH for 30 min and the radioactivity counted in the beta counter.
The specificity of the stimulation of endothelial cell growth by the compound as measured by ^3H-thymidine incorporation was tested by pre-incubation of cells with the HGF/SF receptor c-met. […]

MDCK cells = experiment: Scatter assay; type: cell-based; details: 6 microgram/ml; microscopic examination
Procedure: Scatter Assay. A standard assay for scatter of MDCK cells was performed. Results were evaluated by microscopic examination.

[6] = tested on: MDCK cells exposed to adriamycin; experiment: Anti-apoptotic activity assay (MTT viability, adriamycin-induced apoptosis); type: cell-based
another cell line = experiment: Anti-apoptotic activity assay in another cell line; type: cell-based
Procedure: Anti-apoptotic Activity Assay. The ability of compounds of the present invention to protect cells-from apoptosis was performed using a MTT viability assay with MDCK cells exposed to adriamycin (15 micromolar) to induce apoptosis. HGF/SF was evaluated as a positive control.
In another cell line, 90% protection was afforded by (4-chlorophenyl)[3-(2-(2-thienyl)vinyl)-1H-pyrazol-1-yl]methanone.

[7] = tested on: mice following removal of the femoral artery; experiment: In vivo blood flow improvement assay; details: administered to mice for seven days following removal of the femoral artery
[8] = tested on: human endometrial cancer cells; experiment: Effect on growth of tumor cells; type: cell-based; details: 40 micrograms/ml
Procedure: Effect on growth of tumor cells. The activity of the compounds herein to promote or inhibit the growth of tumor cells was evaluated using human endometrial cancer cells.

Sequence of c-Met receptor (P08581 25-1390): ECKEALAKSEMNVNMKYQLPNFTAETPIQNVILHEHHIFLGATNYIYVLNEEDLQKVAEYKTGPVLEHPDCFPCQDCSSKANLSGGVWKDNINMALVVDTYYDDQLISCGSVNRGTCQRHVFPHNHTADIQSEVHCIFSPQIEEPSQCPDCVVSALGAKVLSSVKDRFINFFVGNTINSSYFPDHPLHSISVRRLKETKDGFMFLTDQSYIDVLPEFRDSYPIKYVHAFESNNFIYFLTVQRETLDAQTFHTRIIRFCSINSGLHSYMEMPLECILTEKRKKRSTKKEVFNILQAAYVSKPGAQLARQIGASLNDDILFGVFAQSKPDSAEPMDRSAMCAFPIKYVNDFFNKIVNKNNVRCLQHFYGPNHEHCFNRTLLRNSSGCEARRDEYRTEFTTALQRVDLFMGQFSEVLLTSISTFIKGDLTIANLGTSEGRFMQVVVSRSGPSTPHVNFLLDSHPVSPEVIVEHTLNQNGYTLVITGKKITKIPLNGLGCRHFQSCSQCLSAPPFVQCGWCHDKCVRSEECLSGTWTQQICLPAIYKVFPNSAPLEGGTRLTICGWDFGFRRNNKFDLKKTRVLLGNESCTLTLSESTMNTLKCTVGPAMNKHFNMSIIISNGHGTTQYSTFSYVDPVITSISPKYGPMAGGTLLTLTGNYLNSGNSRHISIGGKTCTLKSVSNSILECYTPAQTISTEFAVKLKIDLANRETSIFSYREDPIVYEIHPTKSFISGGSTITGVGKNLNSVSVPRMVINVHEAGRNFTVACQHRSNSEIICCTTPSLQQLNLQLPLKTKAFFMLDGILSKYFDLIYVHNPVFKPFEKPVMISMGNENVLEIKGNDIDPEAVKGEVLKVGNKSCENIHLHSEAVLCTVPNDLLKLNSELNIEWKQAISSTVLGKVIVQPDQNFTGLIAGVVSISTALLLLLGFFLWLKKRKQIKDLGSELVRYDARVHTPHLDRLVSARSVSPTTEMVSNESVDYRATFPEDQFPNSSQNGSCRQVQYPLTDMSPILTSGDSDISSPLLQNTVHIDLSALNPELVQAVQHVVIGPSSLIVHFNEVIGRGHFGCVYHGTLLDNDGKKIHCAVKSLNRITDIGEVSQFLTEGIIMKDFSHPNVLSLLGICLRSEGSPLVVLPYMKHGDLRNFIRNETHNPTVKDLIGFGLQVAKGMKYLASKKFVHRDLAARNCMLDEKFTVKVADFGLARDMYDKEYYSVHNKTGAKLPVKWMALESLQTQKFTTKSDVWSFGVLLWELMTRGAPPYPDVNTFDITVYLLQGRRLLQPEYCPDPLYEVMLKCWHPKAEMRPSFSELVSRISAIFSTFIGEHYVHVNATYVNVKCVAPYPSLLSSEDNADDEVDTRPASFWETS

SMILES: Cc1cc(C(=O)C=Cc2c(Cl)cccc2Cl)ccc1Cl [1-(4-chloro-3-methylphenyl)-3-(2,6-dichlorophenyl)-prop-2-en-1-one]
- Activity at 1 ug/ml concentration Without HGF/SF (result in words) ([1]; 1 ug/ml, without HGF/SF): No effect at 1 ug/ml
- effect on HGF/SF-mediated increase in endothelial cell proliferation ([2]; 1.5 micromolar): suppressed
- Inhibition at 6-12 micrograms/ml With ([2]; 6-12 micrograms/ml, with HGF/SF, inhibition of endothelial cell proliferation): 40-80% inhibition
- ingrowth of blood vessels into Matrigel plug [3]: nearly complete inhibition of blood vessel ingrowth
- DU145 cell growth (DU145 cells): dose responsive inhibition
- effect on VEGF-mediated increase in endothelial cell proliferation [4]: suppressed
- effect on FGF-mediated increase in endothelial cell proliferation [5]: suppressed

SMILES: O=C(c1ccc(Cl)cc1)n1ccc(C=Cc2cccs2)n1 [(4-chlorophenyl)[3-(2-(2-thienyl)vinyl)-1H-pyrazol-1-yl]methanone]
- stimulation of 3H-thymidine incorporation ([1]; compound by itself, 6 microgram/ml): 84%
- inhibition of the compound's stimulation of 3H-thymidine incorporation in the presence of c-Met (c-Met receptor; compound 6 microgram/ml plus c-Met receptor 100 microgram/ml): 75%
- compound-induced EC proliferation blocked in the presence of C-met receptor (c-Met receptor; compound 12 microgram/ml incubated with C-met receptor 5 microgram/ml for 30 min, then added to cells): 40%
- scatter of MDCK cells (MDCK cells): caused scattering of MDCK cells similar to that seen with HGF/SF
- protection from adriamycin-induced apoptosis ([6]; MDCK cells): 94%
- cell viability, substance alone ([6]; without adriamycin): unchanged
- protection from adriamycin-induced apoptosis (another cell line): 90%
- blood flow [7]: significant improvement in blood flow

SMILES: Cc1nn(C(=O)c2c(-c3c(Cl)cccc3Cl)noc2C)c(C)c1Cc1c(Cl)cccc1Cl [[4-(2,6-dichlorobenzyl)-3,5-dimethyl-1H-pyrazol-1-yl][3-(2,6-dichlorophenyl)-5-methylisoxazol-4-yl]methanone]
- effect on HUVEC proliferation, substance alone (FIG. 5) [1]: no effect
- blockage of HGF/SF induced proliferation of HUVEC ([2]; 12 micrograms/ml): 40-60%
- effect on HGF/SF-mediated stimulation of HUVEC proliferation (FIG. 5) ([2]; combination of HGF/SF and the compound): significant suppression
- inhibition at 40 µg/mL [8]: 40 to 50%
